Data reported in patent US20260193179A9 (priority 2018, published 2026).
Structures can show the parent of a compound that is named as a salt. Where two headings read alike, the source gives them in different places.

Legend:
MASP-2 (CCP1-CCP2-SP) [1] = target: MASP-2 (CCP1-CCP2-SP) (Homo sapiens, UniProt O00187); experiment: Enzymatic Assay for MASP-2 (fluorogenic substrate); format: biochemical
mMASP-2 = mMASP-2 (Mus musculus, UniProt Q91WP0); experiment: Enzymatic assay for mMASP-2; format: biochemical
Sequence of mMASP-2 (Q91WP0 20-685): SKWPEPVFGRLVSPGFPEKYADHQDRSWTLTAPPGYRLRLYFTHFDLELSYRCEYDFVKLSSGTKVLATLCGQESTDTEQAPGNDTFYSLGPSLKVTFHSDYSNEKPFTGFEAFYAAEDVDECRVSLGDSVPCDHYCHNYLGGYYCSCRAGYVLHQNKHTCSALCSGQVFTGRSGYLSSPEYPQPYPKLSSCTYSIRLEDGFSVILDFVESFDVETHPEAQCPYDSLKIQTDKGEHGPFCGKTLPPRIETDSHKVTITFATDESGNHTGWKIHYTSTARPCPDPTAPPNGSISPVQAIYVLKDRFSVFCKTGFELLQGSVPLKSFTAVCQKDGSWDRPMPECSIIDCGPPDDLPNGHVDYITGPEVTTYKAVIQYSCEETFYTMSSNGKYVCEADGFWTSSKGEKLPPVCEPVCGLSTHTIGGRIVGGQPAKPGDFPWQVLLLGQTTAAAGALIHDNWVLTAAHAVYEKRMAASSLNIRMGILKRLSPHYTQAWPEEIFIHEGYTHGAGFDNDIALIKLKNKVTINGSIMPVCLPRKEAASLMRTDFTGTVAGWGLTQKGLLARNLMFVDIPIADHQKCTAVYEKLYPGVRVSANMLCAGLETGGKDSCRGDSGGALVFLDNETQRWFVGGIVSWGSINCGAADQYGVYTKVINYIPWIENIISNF

human α-thrombin = human α-thrombin (Homo sapiens, UniProt P00734); experiment: Enzymatic Assay for Thrombin (Boc-VPR-AMC substrate); format: biochemical
MASP-2 (CCP1-CCP2-SP) [2] = experiment: Enzymatic Assay for MASP-2 (fluorogenic substrate); format: biochemical, human; settings: selectivity for MASP-2 inhibition versus thrombin
Lectin Pathway = Lectin Pathway Activation Assay in Human Serum (mannan-coated ELISA, C3c detection); format: biochemical; settings: 1% human serum
Protocol: Microtiter ELISA plate was coated with mannan from Saccharomyces cerevisiae (Sigma-Aldrich, M7504) for overnight at 4° C. in coating buffer [15 mM Na2CO3, 35 mM NaHCO3]. Plate was blocked with 1% bovine serum albumin (BSA) (Sigma-Aldrich, A3294) in Tris-buffered Saline (TBS) [10 mM Tris-HCl, 140 mM NaCl] for 2 hours at room temperature. […] 100 μL of this mixture were then added to the plate and plate was incubated at 37° C. for up to an hour with gentle shaking, 200 rpm. After that, plate was washed thrice in wash buffer [TBS containing 5 mM CaCl2) and 0.05% Tween-20] and 100 μL of rabbit anti human C3c (Dako, A0062) diluted 1:5000 in wash buffer were added and incubated at 37° C. for 30 minutes.

[3] = human α-thrombin, Boc-VPR-AMC substrate

Sequence of MASP-2 (CCP1-CCP2-SP) (Homo sapiens, UniProt O00187) (O00187 445-686): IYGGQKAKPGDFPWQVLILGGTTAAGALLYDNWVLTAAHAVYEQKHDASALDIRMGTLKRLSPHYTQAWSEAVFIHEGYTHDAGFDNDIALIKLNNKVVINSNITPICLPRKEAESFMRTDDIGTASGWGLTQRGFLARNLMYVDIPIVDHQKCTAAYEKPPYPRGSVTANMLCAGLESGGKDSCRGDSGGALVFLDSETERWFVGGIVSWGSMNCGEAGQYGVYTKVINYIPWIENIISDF
Sequence of MASP-2 (CCP1-CCP2-SP) (Homo sapiens, UniProt O00187) (O00187 298-444): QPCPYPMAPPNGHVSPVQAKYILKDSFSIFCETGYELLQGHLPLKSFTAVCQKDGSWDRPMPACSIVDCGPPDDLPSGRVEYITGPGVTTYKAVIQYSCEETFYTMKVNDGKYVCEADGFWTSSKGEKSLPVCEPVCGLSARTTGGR

`Cc1nc(N)ccc1CNC(=O)[C@H](CCC(N)=O)NC(=O)[C@H](N)CCc1ccccc1` [compound 1376, (S)—N^1-((6-Amino-2-methylpyridin-3-yl)methyl)-2-((R)-2-amino-4-phenylbutanamido)pentanediamide] showed a Ki (MASP-2 (CCP1-CCP2-SP) [1]) of 500 to 2500 nM, a Ki (mMASP-2) greater than 25000 nM and a Ki (human α-thrombin; [3]) greater than 25000 nM.
In the case of `C[C@H](OC(=O)[C@H](N)CCc1ccccc1)C(=O)NCc1ccc(C(=N)N)cc1` [compound 1315, (S)-1-((4-Carbamimidoylbenzyl)amino)-1-oxopropan-2-yl (R)-2-amino-4-phenylbutanoate Hydrochloride], the Ki (MASP-2 (CCP1-CCP2-SP) [1]) is reported as 500 to 2500 nM and the Ki (human α-thrombin; [3]) is reported as 2500 to 10000 nM.
`COc1cc(C[C@@H]2CN[C@@H](C(=O)N[C@@H](C)C(=O)NCc3cc(Cl)ccc3-n3cnnn3)C2)cc(OC)c1` [compound 1419, (2R,4S)—N—((S)-1-((5-Chloro-2-(1H-tetrazol-1-yl)benzyl)amino)-1-oxopropan-2-yl)-4-(3,5-dimethoxybenzyl)pyrrolidine-2-carboxamide] was tested, and the “MASP-2 vs. thrombin selectivity” value (MASP-2 (CCP1-CCP2-SP) [2]) was “* (≥1.0 to <5.0-fold)” and the Ki (mMASP-2) was less than 500 nM.
`C[C@H](NC(=O)[C@@H](CCc1ccccc1)NCc1ccc(C(=O)N2CCOCC2)cc1)C(=O)NCc1ccc(C(=N)N)cc1` [compound 1153] showed a Ki (MASP-2 (CCP1-CCP2-SP) [1]) of less than 500 nM and a Ki (human α-thrombin) of less than 500 nM.
`C[C@H](NC(=O)[C@H]1C[C@H](Cc2ccc3ccccc3c2)CN1)C(=O)NCc1cc(Cl)ccc1-n1cnnn1` [compound 1385, (2R,4S)—N—((S)-1-((5-chloro-2-(1H-tetrazol-1-yl)benzyl)amino)-1-oxopropan-2-yl)-4-(naphthalen-2-ylmethyl)pyrrolidine-2-carboxamide] was tested, and the “MASP-2 vs. thrombin selectivity” value (MASP-2 (CCP1-CCP2-SP) [2]) was “** (≥5.0 to <25-fold)” and the IC50 (Lectin Pathway; mannan-coated plate) was 50 to 500 nM.
`C[C@H](NC(=O)[C@H](N)CCc1ccccc1)C(=O)NCc1cc(Cl)ccc1C#N` [compound 1313, Trifluoroacetate salt] was tested, and the Ki (MASP-2 (CCP1-CCP2-SP) [1]) was 2500 to 10000 nM, the Ki (mMASP-2) was greater than 25000 nM and the Ki (human α-thrombin; [3]) was 10000 to 25000 nM.
With `Cc1cc(Cl)cc(CNC(=O)[C@H](C)NC(=O)[C@H]2C[C@@H](c3ccccc3)CCN2)c1O` [compound 1365, (2R,4S)—N—((S)-1-((5-Chloro-2-hydroxy-3-methylbenzyl)amino)-1-oxopropan-2-yl)-4-phenylpiperidine-2-carboxamide] the “MASP-2 vs. thrombin selectivity” value (MASP-2 (CCP1-CCP2-SP) [2]) was “**** (≥100-fold)” and the IC50 (Lectin Pathway; mannan-coated plate) was less than 50 nM.
`C[C@H](NC(=O)[C@H](N)CCc1ccccc1)C(=O)NCc1cccc(Cl)c1` [compound 1021] showed a Ki (mMASP-2) greater than 25000 nM, a Ki (human α-thrombin) greater than 25000 nM and an IC50 (Lectin Pathway) greater than 50000 nM.
For `Cc1nc(N)ccc1CNC(=O)C(C)NC(=O)[C@H]1C[C@H](c2cccc(-c3ccccc3)c2)CN1` (stereo in doubt) [compound 1359, (2R,4R)-4-([1,1′-Biphenyl]-3-yl)-N—((S)-1-(((6-amino-2-methylpyridin-3-yl)methyl)amino)-1-oxopropan-2-yl)pyrrolidine-2-carboxamide Di-trifluoroacetate salt], the Ki (human α-thrombin; [3]) was greater than 25000 nM.
`C[C@H](NC(=O)[C@H]1C[C@H](c2ccccc2)CN1)C(=O)NCc1ccc(C(=N)N)cc1` [compound 1036] gave a Ki (mMASP-2) of less than 500 nM and an IC50 (Lectin Pathway) of less than 500 nM.
In the case of `C[C@H](NC(=O)[C@H]1C[C@H](Cc2ccccc2-c2ccccc2)CN1)C(=O)NCc1cnc2[nH]cc(Cl)c2c1` [compound 1393, (2R,4S)-4-([1,1′-Biphenyl]-2-ylmethyl)-N—((S)-1-(((3-chloro-1H-pyrrolo[2,3-b]pyridin-5-yl)methyl)amino)-1-oxopropan-2-yl)pyrrolidine-2-carboxamide], the “MASP-2 vs. thrombin selectivity” value (MASP-2 (CCP1-CCP2-SP) [2]) is reported as “* (≥1.0 to <5.0-fold)” and the IC50 (Lectin Pathway; mannan-coated plate) is reported as 50 to 500 nM.
In the case of `Cc1nc(N)ccc1CNC(=O)[C@H](C)NC(=O)[C@H]1C[C@H](Cc2ccc(-c3cccnc3)cc2)CN1` [compound 1357, (2R,4S)—N—((S)-1-(((6-Amino-2-methylpyridin-3-yl)methyl)amino)-1-oxopropan-2-yl)-4-(4-(pyridin-3-yl)benzyl)pyrrolidine-2-carboxamide Di-trifluoracetate salt], the “MASP-2 vs. thrombin selectivity” value (MASP-2 (CCP1-CCP2-SP) [2]) is reported as “**** (≥100-fold)” and the IC50 (Lectin Pathway; mannan-coated plate) is reported as less than 50 nM.
In the case of `Cc1nc(N)ccc1CNC(=O)[C@H](C)NC(=O)[C@H]1C[C@H](Cc2ccc(C3CCC3)cc2)CN1` [compound 1379, (2R,4S)—N—((S)-1-(((6-Amino-2-methylpyridin-3-yl)methyl)amino)-1-oxopropan-2-yl)-4-(4-cyclobutylbenzyl)pyrrolidine-2-carboxamide], the “MASP-2 vs. thrombin selectivity” value (MASP-2 (CCP1-CCP2-SP) [2]) is reported as “**** (≥100-fold)” and the IC50 (Lectin Pathway; mannan-coated plate) is reported as 500 to 5000 nM.
In the case of `Cc1nc(N)ccc1CNC(=O)[C@H](C)NC(=O)[C@H]1C[C@H](Cc2ccc(N3CCCC3=O)cc2)CN1` [compound 1391, (2R,4S)—N—((S)-1-(((6-Amino-2-methylpyridin-3-yl)methyl)amino)-1-oxopropan-2-yl)-4-(4-(2-oxopyrrolidin-1-yl)benzyl)pyrrolidine-2-carboxamide], the “MASP-2 vs. thrombin selectivity” value (MASP-2 (CCP1-CCP2-SP) [2]) is reported as “**** (≥100-fold)” and the IC50 (Lectin Pathway; mannan-coated plate) is reported as 500 to 5000 nM.
Work on `C[C@H](NC(=O)[C@H](N)CCc1ccccc1)C(=O)NCc1ccc2c(N)ncnc2c1` [compound 1060, (R)-2-Amino-N—((S)-1-(((4-aminoquinazolin-7-yl)methyl)amino)-1-oxopropan-2-yl)-4-phenylbutanamide Dihydrochloride] yielded a Ki (MASP-2 (CCP1-CCP2-SP) [1]) of less than 2500 nM.
